Measurements: the NIST ThermoML archive (doi:10.1021/je800895q)
Numbers after ± are expanded uncertainties.

With `CCCCn1cc[n+](C)c1.F[P-](F)(F)(F)(F)F` [1-butyl-3-methylimidazolium hexafluorophosphate] the surface tension liquid-gas (287.6 K) was 44.41 ± 0.37 mN/m, the surface tension liquid-gas (288.14 K) was 44.47 ± 0.37 mN/m and the surface tension liquid-gas (292.88 K) was 44.11 ± 0.37 mN/m. The surface tension liquid-gas (292.99 K) was 44.28 ± 0.37 mN/m, the surface tension liquid-gas (297.86 K) was 44.03 ± 0.37 mN/m and the surface tension liquid-gas (298.34 K) was 43.82 ± 0.37 mN/m. It also gave a surface tension liquid-gas (303.33 K) of 43.64 ± 0.36 mN/m, a surface tension liquid-gas (303.37 K) of 43.51 ± 0.36 mN/m and a surface tension liquid-gas (307.96 K) of 43.24 ± 0.36 mN/m. The surface tension liquid-gas (308.21 K) was 43.46 ± 0.36 mN/m, the surface tension liquid-gas (312.44 K) was 43.13 ± 0.36 mN/m and the surface tension liquid-gas (312.88 K) was 42.9 ± 0.36 mN/m. The surface tension liquid-gas (317.86 K) was 42.58 ± 0.36 mN/m, the surface tension liquid-gas (318.23 K) was 42.75 ± 0.36 mN/m and the surface tension liquid-gas (322.81 K) was 42.21 ± 0.35 mN/m. It also gave a surface tension liquid-gas (322.98 K) of 42.45 ± 0.36 mN/m, a surface tension liquid-gas (327.89 K) of 42.14 ± 0.35 mN/m and a surface tension liquid-gas (327.91 K) of 41.94 ± 0.35 mN/m. It also gave a surface tension liquid-gas (332.84 K) of 41.86 ± 0.35 mN/m, a surface tension liquid-gas (333.31 K) of 41.63 ± 0.35 mN/m and a surface tension liquid-gas (337.59 K) of 41.57 ± 0.35 mN/m. For the same compound, the surface tension liquid-gas (337.97 K) was 41.37 ± 0.35 mN/m, the surface tension liquid-gas (342.86 K) was 41.05 ± 0.34 mN/m and the surface tension liquid-gas (343.06 K) was 41.34 ± 0.35 mN/m. For the same compound, the surface tension liquid-gas (348.16 K) was 40.95 ± 0.34 mN/m, the surface tension liquid-gas (348.34 K) was 40.8 ± 0.34 mN/m and the surface tension liquid-gas (352.78 K) was 40.47 ± 0.34 mN/m. It also gave a surface tension liquid-gas (352.99 K) of 40.75 ± 0.34 mN/m.

With `CCCCCCCC[n+]1ccn(C)c1.F[P-](F)(F)(F)(F)F` [1-octyl-3-methylimidazolium hexafluorophosphate] the surface tension liquid-gas (283.91 K) was 34.75 ± 0.3 mN/m, the surface tension liquid-gas (283.92 K) was 34.62 ± 0.3 mN/m and the surface tension liquid-gas (287.88 K) was 34.48 ± 0.29 mN/m. It also gave a surface tension liquid-gas (293.41 K) of 34.14 ± 0.29 mN/m, a surface tension liquid-gas (293.42 K) of 34.36 ± 0.29 mN/m and a surface tension liquid-gas (298.13 K) of 33.95 ± 0.29 mN/m. For the same compound, the surface tension liquid-gas (302.95 K) was 33.56 ± 0.29 mN/m, the surface tension liquid-gas (303 K) was 33.48 ± 0.29 mN/m and the surface tension liquid-gas (308.1 K) was 33.27 ± 0.29 mN/m. For the same compound, the surface tension liquid-gas (308.14 K) was 33.32 ± 0.29 mN/m, the surface tension liquid-gas (313.47 K) was 32.98 ± 0.28 mN/m and the surface tension liquid-gas (313.51 K) was 33.16 ± 0.28 mN/m. For the same compound, the surface tension liquid-gas (318.02 K) was 32.9 ± 0.28 mN/m, the surface tension liquid-gas (318.04 K) was 32.8 ± 0.28 mN/m and the surface tension liquid-gas (322.73 K) was 32.52 ± 0.28 mN/m. For the same compound, the surface tension liquid-gas (322.79 K) was 32.46 ± 0.28 mN/m, the surface tension liquid-gas (327.97 K) was 32.12 ± 0.28 mN/m and the surface tension liquid-gas (327.98 K) was 32.25 ± 0.28 mN/m. The surface tension liquid-gas (332.98 K) was 32.02 ± 0.28 mN/m, the surface tension liquid-gas (333.05 K) was 31.93 ± 0.28 mN/m and the surface tension liquid-gas (337.93 K) was 31.81 ± 0.27 mN/m. It also gave a surface tension liquid-gas (337.95 K) of 31.68 ± 0.27 mN/m, a surface tension liquid-gas (342.84 K) of 31.46 ± 0.27 mN/m and a surface tension liquid-gas (343 K) of 31.53 ± 0.27 mN/m. It also gave a surface tension liquid-gas (348.12 K) of 31.26 ± 0.27 mN/m, a surface tension liquid-gas (348.18 K) of 31.15 ± 0.27 mN/m and a surface tension liquid-gas (353.56 K) of 30.94 ± 0.27 mN/m. The surface tension liquid-gas (353.62 K) was 30.83 ± 0.27 mN/m.

`CCCn1cc[n+](C)c1.F[P-](F)(F)(F)(F)F` [1-methyl-3-propylimidazolium hexafluorophosphate] showed a surface tension liquid-gas (318.33 K) of 46.41 ± 0.39 mN/m, a surface tension liquid-gas (318.39 K) of 46.75 ± 0.39 mN/m and a surface tension liquid-gas (323.12 K) of 46.09 ± 0.38 mN/m. For the same compound, the surface tension liquid-gas (323.13 K) was 46.33 ± 0.39 mN/m, the surface tension liquid-gas (328.13 K) was 45.76 ± 0.38 mN/m and the surface tension liquid-gas (328.14 K) was 45.93 ± 0.38 mN/m. For the same compound, the surface tension liquid-gas (332.59 K) was 45.52 ± 0.38 mN/m, the surface tension liquid-gas (332.63 K) was 45.2 ± 0.38 mN/m and the surface tension liquid-gas (333.28 K) was 45.82 ± 0.38 mN/m. The surface tension liquid-gas (338.14 K) was 45.65 ± 0.38 mN/m, the surface tension liquid-gas (338.21 K) was 45.14 ± 0.38 mN/m and the surface tension liquid-gas (343.25 K) was 44.83 ± 0.37 mN/m. It also gave a surface tension liquid-gas (343.26 K) of 44.86 ± 0.37 mN/m, a surface tension liquid-gas (348.02 K) of 44.66 ± 0.37 mN/m and a surface tension liquid-gas (348.08 K) of 44.54 ± 0.37 mN/m. The surface tension liquid-gas (352 K) was 44.38 ± 0.37 mN/m and the surface tension liquid-gas (352.08 K) was 44.31 ± 0.37 mN/m.

For `CCCCCCn1cc[n+](C)c1.F[P-](F)(F)(F)(F)F` [1-hexyl-3-methylimidazolium hexafluorophosphate], the surface tension liquid-gas (284.3 K) was 39.12 ± 0.33 mN/m, the surface tension liquid-gas (284.36 K) was 39.1 ± 0.33 mN/m and the surface tension liquid-gas (288.16 K) was 38.86 ± 0.33 mN/m. It also gave a surface tension liquid-gas (288.25 K) of 38.81 ± 0.33 mN/m, a surface tension liquid-gas (293.48 K) of 38.6 ± 0.33 mN/m and a surface tension liquid-gas (293.56 K) of 38.7 ± 0.33 mN/m. For the same compound, the surface tension liquid-gas (298.97 K) was 38.25 ± 0.32 mN/m, the surface tension liquid-gas (299.02 K) was 38.21 ± 0.32 mN/m and the surface tension liquid-gas (303.58 K) was 37.99 ± 0.32 mN/m. The surface tension liquid-gas (303.67 K) was 37.89 ± 0.32 mN/m, the surface tension liquid-gas (308.56 K) was 37.61 ± 0.32 mN/m and the surface tension liquid-gas (308.58 K) was 37.78 ± 0.32 mN/m. For the same compound, the surface tension liquid-gas (313.45 K) was 37.26 ± 0.32 mN/m, the surface tension liquid-gas (313.53 K) was 37.3 ± 0.32 mN/m and the surface tension liquid-gas (318.45 K) was 36.88 ± 0.31 mN/m. It also gave a surface tension liquid-gas (318.5 K) of 36.94 ± 0.31 mN/m, a surface tension liquid-gas (323.12 K) of 36.67 ± 0.31 mN/m and a surface tension liquid-gas (323.16 K) of 36.78 ± 0.31 mN/m. The surface tension liquid-gas (327.89 K) was 36.28 ± 0.31 mN/m, the surface tension liquid-gas (327.92 K) was 36.29 ± 0.31 mN/m and the surface tension liquid-gas (333.78 K) was 36.05 ± 0.31 mN/m. It also gave a surface tension liquid-gas (333.82 K) of 35.99 ± 0.31 mN/m, a surface tension liquid-gas (337.92 K) of 35.68 ± 0.3 mN/m and a surface tension liquid-gas (337.94 K) of 35.74 ± 0.3 mN/m. It also gave a surface tension liquid-gas (343.05 K) of 35.48 ± 0.3 mN/m, a surface tension liquid-gas (343.09 K) of 35.29 ± 0.3 mN/m and a surface tension liquid-gas (347.67 K) of 35.21 ± 0.3 mN/m. It also gave a surface tension liquid-gas (347.75 K) of 35.09 ± 0.3 mN/m, a surface tension liquid-gas (353.68 K) of 34.7 ± 0.3 mN/m and a surface tension liquid-gas (353.76 K) of 34.87 ± 0.3 mN/m.
